In patent publication US20220000860A1, “COMPOUNDS, COMPOSITIONS, AND METHODS FOR TREATING HUMAN IMMUNODEFICIENCY VIRUS” (OYAGEN, INC., priority 2017, published 2022):
Read-outs that look alike come from different tables or passages of the source.

Legend:
[1] = molecular target: T1, HIV-1 Integrase (Human immunodeficiency virus type 1 group M subtype B, UniProt P12497); test: integrase assay (XpressBio HIV-1 Integrase Assay Kit); assay type: biochemical
T1 construct: the integrase assay was conducted using the XpressBio HIV-1 Integrase Assay Kit; purchased XpressBio
Experimental: (§1) For the assays listed in Table I, the integrase assay was conducted using the XpressBio HIV-1 Integrase Assay Kit according to the manufacture's protocol. The protease assay was conducted with the Anthranilyl (Abz)-HIV Protease Substrate (Bachem H-2992), a hexapeptide FRET substrate derived from the p24/p15 cleavage site of the viral gag-pol poly-protein, which allows the screening of potential HIV protease inhibitors. 1 mM Abz-Substrate was diluted with Assay Buffer to a working stock of 20 μM. A 50 μM stock HIV-1 protease (received from Sook-kyung Lee (UNC)) was diluted with Assay Buffer (50 mM HEPES, pH 6.8, 150 mM NaCl, and 1% DMSO) to a working stock of 100 nM. 2 μl 100 nM HIV-1 Protease along with 2 uL 20 μM Abz Substrate was added into each well and incubated at room temperature (avoiding light) for 1 hour before being read on an Envision plate reader (Perkin Elmer) excitation at 280 nm, emission at >435 nm. The reverse transcriptase assay utilized purified recombinant HIV (pNL4-3) heterodimeric (p66/p51) Reverse Transcriptase (RT) that was purchased from a commercially available source. The assay was performed in 96-well filter plate, where RT activity was determined by the incorporation of radiolabeled deoxyribonucleotides into the newly synthesized DNA strand. The RT reaction mixture contained in vitro transcribed viral RNA derived from the HIV-1NL4-3 5′-LTR region (position 454 to 652) and primer that is complementary to the primer binding site (PBS, nucleotide residues nucleotides 636 to 652), radiolabeled deoxyribonucleotide, dNTPs and reverse transcriptase. Briefly, the reaction was carried out in a volume of 50 μl containing 50 mM Tris HCl, pH 7.8, 50 mM KCl, 5 mM MgCl2, 1 mM DTT, 50 μM each of dATP, dCTP, dGTP, 50 nM dTTP, 1 μCi of [^3H] dTTP (70-90 Ci/mM) and 5 nM template/primer. The reaction was initiated by the addition of 10 nM RT. For compound screening, serially diluted test articles were added to the reaction followed by the addition of RT. The reaction mixture was incubated at 37° C. for 1 h, and then quenched by the addition of ice-cold trichloroacetic acid (TCA) to the final concentration of 10%. The plate was incubated at 4° C. for 1 h to precipitate the synthesized DNA, then rinsed 3-times with 10% TCA and 1 time with 70% ethanol. After addition of 25 μl scintillation fluid to completely dried wells, radioactivity is counted by MicroBeta scintillation counter. The reduction of radioactivity represents the potency of compound inhibition.

[2] = molecular target: T2, recombinant HIV (pNL4-3) heterodimeric (p66/p51) Reverse Transcriptase (Human immunodeficiency virus type 1 group M subtype B, UniProt P12497); test: reverse transcriptase assay; assay type: biochemical
T2 construct: purified recombinant HIV (pNL4-3) heterodimeric (p66/p51) Reverse Transcriptase (RT); purchased
Experimental: as §1

[3] = molecular target: T3, pNL4-3 Vif (Vif multimerization) (Human immunodeficiency virus type 1 group M subtype B, UniProt P12504); test: Vif FqRET Multimerization Assay; assay type: cell-based, HIV
T3 construct: expressed in transfected cells; host or cells: HEK293T
T3 sequence (P12504 whole entry): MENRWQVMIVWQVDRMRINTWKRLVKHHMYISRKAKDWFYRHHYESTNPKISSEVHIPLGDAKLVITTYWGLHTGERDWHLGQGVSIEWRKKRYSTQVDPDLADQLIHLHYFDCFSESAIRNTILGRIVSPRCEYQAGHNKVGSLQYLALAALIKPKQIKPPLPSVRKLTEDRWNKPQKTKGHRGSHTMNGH
Excerpt: The quenched fluorescence resonance energy transfer (FqRET) cell-based assay utilized expression of pNL4-3 Vif (accession no. M19921) tagged separately with either a EGFP fluorophore (EGFP-V5-Vif) or a REACh2 quencher (Vif-HA-REACh2) in the pIRES-P vector. The Vif multimerization assay was established through robotic co-transfection of HEK293T (293T) cells with Turbofect (Thermo) and optimized for input plasmid ratio (1:4, fluorophore to quencher) to achieve maximum quench of fluorescent signal. EGFP fluorescence was quantified 24 hours after transfection with a BioTek Synergy4 plate reader (ex=485 nm, em=528 nm) followed by the addition of 0-30 μM compound. The plates were read a second time 24 hours after compound addition. The differential between the first and second read in each well was quantified relative to the DMSO control to determine the change in relative fluorescence units (ΔRFU)
The interaction of 2 molecules of Vif (i.e. dimerization) enables quenching of Enhanced Green Fluorescent Protein (EGFP) signal by Resonance Energy Accepting Chromophore 2 (REACh2), a dark mutant of yellow fluorescent protein that is capable of accepting the EGFP donor fluorescence and quenching its signal without an acceptor signal.

[4] = molecular target: T4, HIV-1 protease (Human immunodeficiency virus type 1 group M subtype B, UniProt P12497); test: protease assay (Abz-HIV Protease Substrate FRET); assay type: biochemical
T4 construct: A 50 μM stock HIV-1 protease (received from Sook-kyung Lee (UNC)); gift from Sook-kyung Lee (UNC)
Experimental: as §1

[5] = system: Vif-dependent APOBEC3G degradation; test: Vif-Dependent APOBEC3G Degradation Assay; assay type: cell-based, HIV
Experimental: APOBEC3G-V5-mCherry was stably expressed from the pIRES-P vector in 293T cells under puromycin selection. Fifty ng of plasmid expressing Vif-HA (accession no. AB573087) was transfected into the cells in 384-well format with Turbofect on a liquid handling robot. Four hours after transfection the compounds were added to cells in a range from 0-15 μM. Twenty-four hours after compound addition mCherry fluorescence was read on a BioTek Synergy4 plate reader (ex=587 nm, em=610 nm). Relative fluorescence units (RFU) from compound treated wells were quantified using thresholds set by the −Vif (positive control) and +Vif (negative control).

[6] = system: IIIB (Subtype B); test: PBMC Acute Infection, IIIB; assay type: cell-based, HIV; conditions: Human immunodeficiency virus 1, isolate IIIB, subtype B, RT activity readout; for EC50: read-out: EC50; for EC90: read-out: EC90
Experimental: PHA-stimulated cells from at least two normal donors were pooled (i.e. mixed together), diluted in fresh medium to a final concentration of 1×10^6 cells/mL, and plated in the interior wells of a 96-well round bottom microplate at 50 μL/well (5×10^4 cells/well). Pooling of mononuclear cells from more than one donor was used to minimize the variability observed between individual donors in quantitative and qualitative differences in HIV infection and overall response to the PHA and IL-2 of primary lymphocyte populations. Each plate contained virus control wells (cells plus virus) and experimental wells (drug plus cells plus virus) of either 00KE_KER2008 (Subtype A), IIIB (Subtype B), or 98US_MSC5016 (Subtype C). Test drug dilutions were prepared at a 2×concentration and 100 μL of each concentration was placed in appropriate wells. Fifty μL of a predetermined dilution of virus stock was placed in each test well (final MOI≅0.1). After this period, cell-free supernatant samples were collected for analysis of reverse transcriptase (RT) activity with an RT assay. […] In the Table below SI50=CC50/EC50 and SI90=CC90/EC90.

[7] = Human immunodeficiency virus 1, HEK-293T, 24 h, read-out: EC50, A3G Degradation Assay
[8] = Human immunodeficiency virus 1, read-out: A3G degradation at

| Compound | IC50 [1] | activity against HIV integrase (result in words) [1] | IC50 [2] | activity against HIV reverse transcriptase (result in words) [2] | EC50 [3] | Vif multimerization (result in words) [3] | IC50 [4] | activity against HIV protease (result in words) [4] | Vif-dependent A3G degradation (result in words) [5] | EC50 [5, 7] | EC50 [5, 8] | EC50 [6] | EC90 [6] |
| --- | --- | --- | --- | --- | --- | --- | --- | --- | --- | --- | --- | --- | --- |
| CCc1c2c(nc3ccc(N)cc13)-c1cc3c(c(=O)n1C2)CNC(=O)[C@]3(O)CC [Compound O5-SN, (S)-9-Amino-4,11-diethyl-4-hydroxy-1,2-dihydroquinolino[2′,3′:3,4]pyrrolo[1,2-b][2,7]naphthyridine-3,14(4H,12H)-dione] | > 100000 nM | inactive | > 100000 nM | inactive | 362 nM | block | > 100000 nM | inactive | block | 99 nM | 84 nM | 8 nM | 25 nM |
| CCc1c2c(nc3ccc(O)cc13)-c1cc3c(c(=O)n1C2)CNC(=O)[C@]3(O)CC [SN38-L, (S)-4,11-Diethyl-4,9-dihydroxy-1,2-dihydroquinolino[2′,3′:3,4]pyrrolo[1,2-b][2,7]naphthyridine-3,14(4H,12H)-dione] | > 100000 nM | inactive | > 100000 nM | inactive | 378 nM | block | > 100000 nM | inactive | block | 84 nM | 99 nM | 10 nM | 28 nM |
